# Source: patent US12344878B2, “Artificial organelles for enzymatic cofactor reduction” (priority 2020, dated 2025)
# Where two headings read alike, the source gives them in different places.
# Tests used:
# [1] = target: T1, Respiratory Complex I (CMI, NADH:ubiquinone oxidoreductase) (Escherichia coli, UniProt P0AFC7+P0AFD4+P31979+P33599); test: Complex I proton pumping (ACMA quenching) in CMI proteoliposomes; assay type: biochemical, E. coli
# T1 construct: made in house; host or cells: E. coli overexpression strain ANN0221
# Method: (§1) Complex I NADH:DQ oxidoreductase and proton pumping activity were measured simultaneously using a Flexstation 3 (Molecular Devices, Inc.). NADH:DQ oxidoreductase activity was monitored through NADH oxidation by fluorescence spectroscopy (λexictation=340 nm, λemission=455 nm), while proton gradient generation was determined by quenching of ACMA (λexictation=410 nm, λemission=480 nm). The assay was conducted at 28° C. in the corresponding buffer, 25 μL of proteoliposomes were added to 175 μL assay mixture containing 100 μM DQ, 200 μM NADH, 0.2 μM valinomycin, 2.5 μM ACMA and for decoupling and inhibition assays 5 μM CCCP (carbonyl cyanide 3-chlorophenylhydrazone) and 50 μM Piericidin A, respectively. The sample was incubated for 5 min prior to reaction initiation by addition of NADH. When conducting inhibition assays proteoliposomes were incubated for 5 min with Piericidin A before the addition of DQ.
# [2] = target: (+)CMI-(+)bR proteoliposomes (Escherichia coli, UniProt P0AFC7+P0AFD4+P31979+P33599); assay type: biochemical, E. coli (CMI), H. salinarum (bR)
# Method: (§2) Photoreduction by CMI:PSII proteoliposomes were routinely performed at 28° C. in 5 mM MES, pH 6.5, 50 mM KCl, 5 mM MgCl2 2 mM CaCl2, 25 µL of proteoliposomes were added to 175 μL assay mixture containing 50 μM DQ, 0.2 μM valinomycin, 2.5 μM ACMA; and for decoupling and inhibition assays: 5 μM CCCP and 100 μM DCMU, respectively. The potassium ionophore, valinomycin, was added to collapse the electrical component of the PMF and generate a higher ΔpH. Without being bound by any theory, the reverse electron transfer activity of CMI is believed to be more dependent on the proton component of the […] than the electrical component of the […]. Saturating white light >2200 μmol photons m^−2 s^−1 was provided by a 100 W Mercury lamp. The light was passed through a 2 L water bath. The reaction was monitored using Flexstation 3 (Molecular Devices, Inc.), NADH concentration was monitored by fluorescence spectroscopy (λexictation=340 nm, λemission=455 nm), while the proton gradient generation was determined by the change in ACMA signal (λexictation=410 nm, λemission=480 nm).
# (§3) Liposome preparation, enzyme reconstitution, NAD^+ photoreduction, and proton pumping assays were performed as described above.
# In this study, an engineered artificial organelle capable of photoreduction of NAD^+ was created by vectorially integrating bR from H. salinarum and CMI from E. coli into proteoliposomes. The power source for this system is light which activates the proton translocation by bR. As a result, accumulation of H^+ within the lumen creates a proton motive force (PMF). The PMF is requisite to diminish the thermodynamic gap of the standard redox potentials between NADH/NAD^+ and QH2/Q. Reducing the thermodynamic barrier enables CMI to perform reverse electron transfer (RET) from QH2 to NAD^+ [10, 46].
# The experiments were initially conducted to determine whether the (+)CMI-(+)bR proteoliposomes could reduce NAD^+ and find suitable assay conditions.
# Photosystem II (PSII) = target: T2, Photosystem II (PSII) (Synechocystis sp., UniProt P09192+P16033); test: Oxygen evolution assay (Clarke-type electrode); assay type: biochemical, Synechocystis sp. PCC6803
# T2 construct: made in house; host or cells: Synechocystis sp; PCC6803 strain with His-tagged CP47; thylakoid membranes
# Method: Oxygen evolution assays were performed using 50 mM MES, pH 6.5, 10 mM NaCl, 5 mM MgCl2, 20 mM CaCl2 using a Clarke-type electrode (Hansatech Instruments, Ltd.). 2 mM ferricyanide and either 300 μM 2,5-dicholor-1,4-benzoquinone (DCBQ) or 50 μM DQ was added as electron acceptor with […] of ChlA of the sample to a final volume of 1.5 mL. The reaction took place at 28° C. and was initiated by red light at 2800 μmol s^−1 m^−2.
# CMI:PSII proteoliposomes [3] = tested on: T3, CMI:PSII proteoliposomes; test: Proton gradient (ACMA signal) of CMI:PSII proteoliposomes; assay type: biochemical, E. coli (CMI), Synechocystis sp. PCC6803 (PSII); conditions: 100 μM DCMU
# T3 construct: made in house; host or cells: CMI from E. coli strain ANN0221; PSII from Synechocystis sp; PCC6803 (His-tagged CP47); co-reconstituted in E. coli lipid liposomes
# Method: as §2
# CMI:PSII proteoliposomes [4] = tested on: T3, CMI:PSII proteoliposomes; test: NAD+ photoreduction assay of CMI:PSII proteoliposomes (NADH fluorescence); assay type: biochemical, E. coli (CMI), Synechocystis sp. PCC6803 (PSII); conditions: for Max Rate NAD^+ Photoreduction: 4PSII:1CMI proteoliposomes; for Sum NADH: production plus remaining
# Method: as §2
# [5] = target: T1, Respiratory Complex I (CMI, NADH:ubiquinone oxidoreductase); assay type: biochemical, E. coli
# Method: as §1
# [6] = target: T4, bacteriorhodopsin (bR) and CMI proteoliposomes (Escherichia coli, UniProt P0AFC7+P0AFD4+P31979+P33599); assay type: biochemical, H. salinarum (bR), E. coli (CMI); conditions: 50 μM Piericidin A
# T4 construct: Bacteriorhodopsin from H. salinarum was purified using tangential flow filtration; made in house; host or cells: bR purified from H. salinarum; CMI from E. coli strain ANN0221; co-reconstituted in liposomes
# Method: as §3
# (§4) The pH-sensitive fluorophore 9-amino-6-chloro-2-methoxyacridine (ACMA) was used to conduct proton pumping assays. The rates of ACMA quenching were measured for CMI bR independently. Because of the non-linear relationship between ACMA quenching and ΔpH [54-55], the rate of ACMA quenching and de-quenching were calculated using the linear region of the ACMA signal, between 40-70% of the baseline.
# [7] = tested on: bacteriorhodopsin (bR) and CMI proteoliposomes; assay type: biochemical, H. salinarum (bR), E. coli (CMI); conditions: 0.2 μM valinomycin compared with 0.1 μM
# Method: as §3, §4
# [8] = PSII reconstituted with detergent at 7 mM
# [9] = CMI reconstituted with detergent at 7 mM
# [10] = CMI reconstituted with detergent at 3.8 mM
# [11] = CMI reconstituted with detergent at 18 mM
# [12] = CMI reconstituted with detergent at 26 mM
# [13] = CMI reconstituted with detergent at 1.8 mM
compound,measurement,setting,value
"N#CC(C#N)=NNc1cccc(Cl)c1 [CCCP, carbonyl cyanide 3-chlorophenylhydrazone]",change in ACMA fluorescence of CMI proteoliposomes,[1]; incubation with 5 μM CCCP,minimal change in ACMA fluorescence
same,response of NADH production,[2],negative and significant response
"C[C@H](CCC(=O)NCCC[N+](C)(C)CCCS(=O)(=O)[O-])[C@H]1CC[C@H]2[C@@H]3[C@H](O)C[C@@H]4C[C@H](O)CC[C@]4(C)[C@H]3C[C@H](O)[C@]12C [CHAPS, 3-[(3-cholamidopropyl)dimethylammonio]-1-propanesulfonate]",O2 Evolution (mean ± S.D.),Photosystem II (PSII); PSII reconstituted with detergent at 3.0 mM,178.08 ± 9.91 umol O2 hr^−1 ug ChIA
same,O2 Evolution (mean ± S.D.),Photosystem II (PSII); [8],509.24 ± 256.84 umol O2 hr^−1 ug ChIA
same,ACMA Fluorescence decrease,[1]; CMI reconstituted with detergent at 3.0 mM,0.58%
same,ACMA Fluorescence decrease,[1]; [9],74.54%
"CN(C)C(=O)Nc1ccc(Cl)c(Cl)c1 [DCMU, 3-(3,4-dicholorophenyl)-1,1-dimethylurea]",inhibition of isolated PSII,Photosystem II (PSII); 100 μM DCMU (FIG. 10),70%
same,ACMA signal increase relative to non-inhibited sample,CMI:PSII proteoliposomes [3],approximately 60%
same,average rate of NADH production after removal of light,CMI:PSII proteoliposomes [4]; 100 μM DCMU inhibited sample,−170.65±2.26 nmol min^−1 mg CMI^−1
same,rate of NADH production of inhibited sample relative to non-inhibited sample,"CMI:PSII proteoliposomes [4]; 100 μM DCMU, illumination minus post illumination rates",39.05%±7.64
same,maximum rate of NADH production under illumination,CMI:PSII proteoliposomes [4]; proteoliposomes incubated 5 minutes with 100 μM DCMU,6.44±24.97 nmol min^−1 mg CMI^−1
"CCCCCCCCCCCCO[C@@H]1O[C@H](CO)[C@@H](O[C@H]2O[C@H](CO)[C@@H](O)[C@H](O)[C@H]2O)[C@H](O)[C@H]1O [DDM, n-dodecyl-β-D-maltopyranoside]",O2 Evolution (mean ± S.D.),Photosystem II (PSII); PSII reconstituted with detergent at 3.8 mM,565.87 ± 25.19 umol O2 hr^−1 ug ChIA
same,O2 Evolution (mean ± S.D.),Photosystem II (PSII); PSII reconstituted with detergent at 6.8 mM,396.55 ± 69.76 umol O2 hr^−1 ug ChIA
same,ACMA Fluorescence decrease,[1]; [10],1.46%
same,ACMA Fluorescence decrease,[1]; [9],0.32%
same,NADH:DQ oxidoreductase activity,[5]; [10],13.43 umol min^−1 mg CMI^−1
same,NADH:DQ oxidoreductase activity,[5]; [9],0.76 umol min^−1 mg CMI^−1
NC(=O)C1=CN([C@@H]2O[C@H](COP(=O)(O)OP(=O)(O)OC[C@H]3O[C@@H](n4cnc5c(N)ncnc54)[C@H](O)[C@@H]3O)[C@@H](O)[C@H]2O)C=CC1 [NADH],Max Production of NADH,CMI:PSII proteoliposomes [4]; 100 μM NADH injected,8.04 µM
same,NADH remaining prior to photoreduction,CMI:PSII proteoliposomes [4]; 100 μM NADH injected,2.05 µM
same,Max Rate NAD^+ Photoreduction,CMI:PSII proteoliposomes [4]; 100 μM NADH injected,132.30 nmol min^−1 mg CMI^−1
same,Sum NADH,CMI:PSII proteoliposomes [4]; 100 μM NADH injected,10.08 µM
same,Max Production of NADH,CMI:PSII proteoliposomes [4]; 200 μM NADH injected,9.10 µM
same,NADH remaining prior to photoreduction,CMI:PSII proteoliposomes [4]; 200 μM NADH injected,4.10 µM
same,Max Rate NAD^+ Photoreduction,CMI:PSII proteoliposomes [4]; 200 μM NADH injected,213.32 nmol min^−1 mg CMI^−1
same,Sum NADH,CMI:PSII proteoliposomes [4]; 200 μM NADH injected,13.20 µM
same,Max Production of NADH,CMI:PSII proteoliposomes [4]; 300 μM NADH injected,6.48 µM
same,NADH remaining prior to photoreduction,CMI:PSII proteoliposomes [4]; 300 μM NADH injected,8.19 µM
same,Max Rate NAD^+ Photoreduction,CMI:PSII proteoliposomes [4]; 300 μM NADH injected,178.71 nmol min^−1 mg CMI^−1
same,Sum NADH,CMI:PSII proteoliposomes [4]; 300 μM NADH injected,14.67 µM
same,Max Production of NADH,CMI:PSII proteoliposomes [4]; 400 μM NADH injected,1.53 µM
same,NADH remaining prior to photoreduction,CMI:PSII proteoliposomes [4]; 400 μM NADH injected,13.41 µM
same,Max Rate NAD^+ Photoreduction,CMI:PSII proteoliposomes [4]; 400 μM NADH injected,57.45 nmol min^−1 mg CMI^−1
same,Sum NADH,CMI:PSII proteoliposomes [4]; 400 μM NADH injected,14.94 µM
"CCCCCCCCO[C@@H]1O[C@H](CO)[C@@H](O)[C@H](O)[C@H]1O [OG, n-octyl-β-D-glucoside]",O2 Evolution (mean ± S.D.),Photosystem II (PSII); PSII reconstituted with detergent at 18 mM,306.95 ± 44.24 umol O2 hr^−1 ug ChIA
same,O2 Evolution (mean ± S.D.),Photosystem II (PSII); PSII reconstituted with detergent at 26 mM,481.01 ± 192.16 umol O2 hr^−1 ug ChIA
same,ACMA Fluorescence decrease,[1]; [11],0.71%
same,ACMA Fluorescence decrease,[1]; [12],−0.16%
same,NADH:DQ oxidoreductase activity,[5]; [11],5.24 umol min^−1 mg CMI^−1
same,NADH:DQ oxidoreductase activity,[5]; [12],8.95 umol min^−1 mg CMI^−1
C/C=C(\C)[C@H](O)[C@H](C)/C=C(C)/C=C/C/C(C)=C/Cc1nc(OC)c(OC)c(O)c1C [Piericidin A],rate of ACMA signal increase during photoreduction,[6]; 0.0 mM DTT,3.96±0.64 ACMA % min^−1
same,rate of ACMA signal increase during photoreduction,[6]; 1.0 mM DTT,3.15±0.94 ACMA % min^−1
same,effect on NAD^+ reductase rates,[2]; 50 μM Piericidin A,significantly increased
same,NAD^+ reductase rate relative to samples with no Piericidin A,"[2]; 50 μM Piericidin A, 0.0 mM DTT",~3 times
same,NAD^+ reductase rate relative to samples with no Piericidin A,"[2]; 50 μM Piericidin A, 1.0 mM DTT",~4 times
same,reduction of the rate of NADH produced,"[2]; after 35 minutes, Piericidin A present",95%
same,inhibition of NADH:DQ oxidoreductase specific activity of CMI proteoliposomes,[5]; 50 μM Piericidin A,> 95%
same,inhibition of NADH oxidation by CMI,"[5]; 50 μM Piericidin A, (+)CMI-(−)bR proteoliposomes (FIG. 13)",> 95%
CC(C)[C@@H]1NC(=O)[C@H](C)OC(=O)[C@@H](C(C)C)NC(=O)[C@@H](C(C)C)OC(=O)[C@H](C(C)C)NC(=O)[C@H](C)OC(=O)[C@@H](C(C)C)NC(=O)[C@@H](C(C)C)OC(=O)[C@H](C(C)C)NC(=O)[C@H](C)OC(=O)[C@@H](C(C)C)NC(=O)[C@@H](C(C)C)OC1=O [valinomycin],ACMA quenching,[7],quenched the ACMA more than 0.1 μM
"polyethylene glycol p-(1,1,3,3-tetramethylbutyl)-phenyl ether [Triton X-100 ™]",O2 Evolution (mean ± S.D.),Photosystem II (PSII); PSII reconstituted with detergent at 1.8 mM,530.72 ± 2.53 umol O2 hr^−1 ug ChIA
same,O2 Evolution (mean ± S.D.),Photosystem II (PSII); [8],218.69 ± 67.01 umol O2 hr^−1 ug ChIA
same,ACMA Fluorescence decrease,[1]; [13],−2.75%
same,ACMA Fluorescence decrease,[1]; [9],−4.90%
same,NADH:DQ oxidoreductase activity,[5]; [13],−0.00 umol min^−1 mg CMI^−1
same,NADH:DQ oxidoreductase activity,[5]; [9],9.05 umol min^−1 mg CMI^−1
